Experimental data from patent publication US6623933B1 (priority 1999, dated 2003).
“Also recorded” adds a separate entry of the source. Structures can show the parent of a compound that is named as a salt. Where two headings read alike, the source gives them in different places.

Assays:
[1] = system: primary cultures of rat hippocampal neurons; test: NMDA-induced neuronal death, trypan blue exclusion; format: cell-based; conditions: for inhibition of NMDA-induced neuronal death: acute 30 μM NMDA, steroid 100 μM (3α5β 50 μM); for exacerbation of NMDA-induced neuronal death: acute NMDA, steroid 100 μM (pregnenolone 20 μM)
Experimental: (§1) Principally neuronal cultures were prepared from hippocampal tissue of fetal Sprague-Dawley rats on day 18 of embryonic development, as previously described (Brewer et al., Brain Research 494: 65-74 (1989)). Briefly, hippocampal cells were dissociated by trituration in Ca^2+/Mg^2+-free Hank's basic salt solution (Gibco) supplemented with 4.2 mM bicarbonate, 1 mM sodium pyruvate, 20 mM HEPES, 3 mg/ml bovine serum albumin (BSA). Dissociated cells were then pelleted by centrifugation (500×g, 4 min). […] Cells were then plated onto poly-L-lysine-coated 24-well culture dishes (Nunclon) at a density of 15,000 cell/cm^2 and maintained in a humidified atmosphere containing 5% CO2/95% air at 37° C. After 48 h, nonneuronal cell division was inhibited by a 48 h exposure to 1 μM cytosine arabinoside. Cultures were subsequently maintained in serum-free DMEM plus defined components and were used for experiments 16 to 24 days after plating.
(§2) Steroids were dissolved in DMSO (0.5% final concentration), and all treatment media contained 0.5% DMSO. […] Following exposure, cultures were washed 3 times with medium from sister cultures (conditioned medium). After the final wash, steroid or vehicle was reintroduced. Drugs were added to cultures in 25 μl of conditioned medium to yield a final volume of 0.25 ml per well. Except where otherwise noted, final steroid concentration was 100 μM.
The ability of neurons to exclude trypan blue was used to quantitate cell viability (Dawson et al., Proc Natl Acad Sci USA 88: 6368-6371 (1991)). […] Cultures were then fixed with 4% paraformaldehyde in PBS for 30 min, at whichtime the fixative was replaced with PBS. The number of stained and unstained neurons were counted in 4 high-power fields per culture well, using an inverted phase contrast microscope under both bright field and phase contrast settings. Experiments were performed in triplicate, and all assessments were made with the experimenter blind to the treatment of each culture well. Percent cell death is expressed as follows: (number of trypan blue stained neurons)/(total number of neurons)×100%.
(§3) All data are expressed as mean±standard error of the mean. Statistical significance was evaluated using 95% confidence limits unless otherwise noted.

[2] = target: T1, NR1100+NR2A NMDA receptor (Rattus norvegicus, UniProt P35439+Q00959); test: NMDA-induced current (INMDA), Xenopus oocytes, Example 2; format: cell-based; conditions: 100 μM NMDA, 100 μM steroid
T1 construct: expressed in transfected cells; host or cells: Xenopus oocytes co-injected with NR1100 and NR2A cRNA
T1 sequence (Q00959 23-1464, other chains not shown): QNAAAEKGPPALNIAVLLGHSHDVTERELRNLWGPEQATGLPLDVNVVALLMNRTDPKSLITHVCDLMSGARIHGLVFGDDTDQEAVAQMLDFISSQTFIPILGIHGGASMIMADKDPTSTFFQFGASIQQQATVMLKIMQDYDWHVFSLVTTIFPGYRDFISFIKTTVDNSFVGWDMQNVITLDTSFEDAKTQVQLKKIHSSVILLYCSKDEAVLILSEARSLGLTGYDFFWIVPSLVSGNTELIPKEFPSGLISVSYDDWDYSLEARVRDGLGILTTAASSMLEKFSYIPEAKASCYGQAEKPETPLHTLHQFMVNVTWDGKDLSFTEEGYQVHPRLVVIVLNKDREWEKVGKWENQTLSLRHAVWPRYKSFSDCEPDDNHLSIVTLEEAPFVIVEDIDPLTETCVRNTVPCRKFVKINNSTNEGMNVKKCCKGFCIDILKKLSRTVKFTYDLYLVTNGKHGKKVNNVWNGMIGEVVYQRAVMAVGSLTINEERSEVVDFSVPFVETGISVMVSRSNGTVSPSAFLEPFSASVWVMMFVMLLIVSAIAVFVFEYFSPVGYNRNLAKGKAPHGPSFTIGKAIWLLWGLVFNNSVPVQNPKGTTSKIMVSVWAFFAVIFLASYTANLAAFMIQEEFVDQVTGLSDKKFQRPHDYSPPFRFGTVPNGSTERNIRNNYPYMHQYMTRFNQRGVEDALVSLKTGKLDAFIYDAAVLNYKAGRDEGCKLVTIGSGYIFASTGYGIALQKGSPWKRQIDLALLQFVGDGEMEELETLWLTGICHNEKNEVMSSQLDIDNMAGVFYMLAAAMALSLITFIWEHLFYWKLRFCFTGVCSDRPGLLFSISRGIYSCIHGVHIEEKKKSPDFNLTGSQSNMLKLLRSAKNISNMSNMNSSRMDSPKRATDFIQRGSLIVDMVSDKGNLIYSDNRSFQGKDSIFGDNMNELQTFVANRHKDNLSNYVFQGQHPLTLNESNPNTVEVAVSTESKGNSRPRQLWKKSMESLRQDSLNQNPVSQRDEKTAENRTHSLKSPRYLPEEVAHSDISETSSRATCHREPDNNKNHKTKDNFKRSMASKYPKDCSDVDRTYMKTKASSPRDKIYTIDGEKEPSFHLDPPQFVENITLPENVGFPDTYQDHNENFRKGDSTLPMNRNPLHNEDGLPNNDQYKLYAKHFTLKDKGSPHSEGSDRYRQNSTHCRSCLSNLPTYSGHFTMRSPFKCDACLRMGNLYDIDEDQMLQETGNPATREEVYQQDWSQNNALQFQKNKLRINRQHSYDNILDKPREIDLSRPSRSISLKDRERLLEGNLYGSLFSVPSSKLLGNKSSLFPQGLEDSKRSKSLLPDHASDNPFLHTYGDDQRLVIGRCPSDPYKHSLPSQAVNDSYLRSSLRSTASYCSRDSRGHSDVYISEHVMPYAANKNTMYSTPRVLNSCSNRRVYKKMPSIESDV
Experimental: NR1100 (NR1G) and NR2A clones were kindly provided by Dr. R. S. Zukin (Albert Einstein College of Medicine, New York, N.Y.) and Dr. S. Nakanishi (Faculty of Medicine, Kyoto University, Kyoto, Japan), respectively. mRNA was prepared through in vitro transcription of NR1100 and NR2A cDNAs using the mMessage mMachine kit (Ambion, Tex.). On the day following isolation, batches of 20-40 selected Xenopus oocytes were injected with 50 nl of prepared RNA solution (0.5 ng NR1100 and 5 ng of NR2A mRNA/oocyte). Oocytes were maintained in glass petri dishes containing Barth's solution (84 mM NaCl, 1 mM KCl, 2.4 mM NaHCO3, 0.82 mM MgSO4, 0.41 mM CaCl2, 0.33 mM Ca(NO3)2, 2.5 mM pyruvate, 0.1 mg/ml gentamycin, 7.5 mM Tris/HCl, pH 7.4) in an incubator at 18° C. Oocytes were used for electrophysiological experiments 4-10 days after injection.
Recordings from oocytes were obtained using the two electrode voltage-clamp mode with an Axoclamp-2A amplifier (Axon Instruments). The resistance of microelectrodes, pulled from glass capillaries and filled with 3 M KCl solution, was 2.5-3.5 M. Membrane potential was clamped at −70 mV. Drugs were applied by a gravity-driven external perfusion system. Drug application and data acquisition were carried out with custom-written software implemented in the SuperScopeII programming language (GW Instruments, Somerville, Mass.).
The degree of modulation of NMDA-induced Ca^2+ influx, cell death, and currents is expressed as the percent change, defined as (I′/I−1)×100%, where I and I′ are the NMDA-induced responses in the absence and presence of modulator, respectively. All data are expressed as mean±standard error of the mean. Statistical significance was evaluated using 95% confidence limits unless otherwise noted.

[3] = system: primary cultures of rat hippocampal neurons; test: NMDA-induced increase in [Ca2+]i, Fluo-3 AM; format: cell-based; conditions: for reduction of NMDA-induced rise in [Ca2+]i: steroid 100 μM (3α5β 50 μM)
Experimental: as §1
DMSO was also added to controls to maintain a constant final DMSO concentration of […].
as §3

[4] = target: T1, NR1100+NR2A NMDA receptor; test: NMDA-induced currents, Xenopus oocytes, Example 1; format: cell-based; conditions: for effect on NMDA induced current: NR1100+NR2A, sulfate
From the text: (§4) Plasmids were obtained from the following individuals: Dr. Suzanne Zukin (Albert Einstein College of Medicine, Bronx, N.Y.), NR1100; Dr. Shigetada Nakanishi (Kyoto University Faculty of Medicine, Kyoto, Japan), NR2A; Dr. Stephen Heinemann (Salk Institute, San Diego, Calif.), GluR1 (flop), GluR3 (flop), and GluR6. Plasmids were linearized with BamH1 (NR1100), XhoI (NR2A, GluR1, GluR3) or XbaI (GluR6) prior to in vitro transcription with T3 (GluR1, GluR3, GluR6) or T7 (NR1100, NR2A) RNA polymerase using the Message Machine kit (Ambion, Austin, Tex.). […] RNA solutions (50-70 nl) were injected into oocytes for delivery of NR1100 (5 ng), NR1100:NR2A (1:10 ng), GluR1 (5 ng). GluR3 (5 ng), or GluR6 (20 ng). Oocytes were incubated in ND96 at 18-20° C. for 3-7 days prior to electrophysiological recording.
(§5) Steroid solutions were prepared as 70-100 mM frozen stocks in dimethyl sulfoxide (DMSO). The final DMSO concentration of all recording solutions was between 0.1% to 0.5% and was constant within an experiment.
(§6) Perfusion control and data acquisition were carried out using an automated oocyte electrophysiology workstation that was developed for the rapid collection of concentration-response data and real-time waveform analysis (Yaghoubi et al., Soc. Neurosci. Abstr. 20: 1109 (1995)). This system is implemented on a Macintosh IIci computer (Apple Computer, Cupertino, Calif.) equipped with MacA-DIOS II data acquisition and control hardware (GW Instruments, Somerville, Mass.). Drug application is controlled by the computer through a series of valves, using custom-written software based on the SuperScope II development environment, improving the efficiency and reproducibility of data collection. Experiments were carried out using an Axoclamp-2A voltage clamp amplifier (Axon Instruments, Foster City, Calif.) in two-electrode voltage clamp mode. Intracellular microelectrodes (1-3 MΩ) were filled with 3 M KCl. […] Membrane potential was clamped at −60 to −70 mV and stepped to −100 mV at the start of data acquisition unless otherwise stated. […] Current and voltage recordings were digitized at 100 Hz for analysis. GluR6 injected oocytes were treated for 10 min with 10 μg/ml concanavalin A to prevent fast desensitization.
(§7) Results are expressed as mean±S.E.M. Statistical comparisons were made using Student's t-test.

NR1100 NMDA receptor = target: T2, NR1100 NMDA receptor (Rattus norvegicus, UniProt P35439); test: NMDA-induced currents, Xenopus oocytes injected with NR1100 cRNA only, Example 1; format: cell-based
T2 construct: expressed in transfected cells; host or cells: Xenopus oocytes injected with NR1100 cRNA only
From the text: as §4, §5, §6, §7

[5] = system: NMDA receptor (chick spinal cord neurons); conditions: Park-Chung et al. 1997, cited from earlier work
[6] = Precipitation in assay buffer / culture medium; format: physicochemical; conditions: 0.5% DMSO, above 50 μM (3α5β) and 20 μM (pregnenolone)
Experimental: Steroids were initially dissolved in 100% DMSO, then diluted into assay buffer at a final DMSO concentration of 0.5% and sonicated for 20 min. All other solutions also contained 0.5% DMSO. Except where otherwise noted, the final steroid concentration was 100 μM.
as §2

GluR3 AMPA receptor = target: T3, GluR3 AMPA receptor (Rattus norvegicus, UniProt P19492); test: Kainate-induced currents, Xenopus oocytes injected with GluR3 cRNA; format: cell-based
T3 construct: expressed in transfected cells; host or cells: Xenopus oocytes injected with GluR3 cRNA
T3 sequence (P19492 23-888): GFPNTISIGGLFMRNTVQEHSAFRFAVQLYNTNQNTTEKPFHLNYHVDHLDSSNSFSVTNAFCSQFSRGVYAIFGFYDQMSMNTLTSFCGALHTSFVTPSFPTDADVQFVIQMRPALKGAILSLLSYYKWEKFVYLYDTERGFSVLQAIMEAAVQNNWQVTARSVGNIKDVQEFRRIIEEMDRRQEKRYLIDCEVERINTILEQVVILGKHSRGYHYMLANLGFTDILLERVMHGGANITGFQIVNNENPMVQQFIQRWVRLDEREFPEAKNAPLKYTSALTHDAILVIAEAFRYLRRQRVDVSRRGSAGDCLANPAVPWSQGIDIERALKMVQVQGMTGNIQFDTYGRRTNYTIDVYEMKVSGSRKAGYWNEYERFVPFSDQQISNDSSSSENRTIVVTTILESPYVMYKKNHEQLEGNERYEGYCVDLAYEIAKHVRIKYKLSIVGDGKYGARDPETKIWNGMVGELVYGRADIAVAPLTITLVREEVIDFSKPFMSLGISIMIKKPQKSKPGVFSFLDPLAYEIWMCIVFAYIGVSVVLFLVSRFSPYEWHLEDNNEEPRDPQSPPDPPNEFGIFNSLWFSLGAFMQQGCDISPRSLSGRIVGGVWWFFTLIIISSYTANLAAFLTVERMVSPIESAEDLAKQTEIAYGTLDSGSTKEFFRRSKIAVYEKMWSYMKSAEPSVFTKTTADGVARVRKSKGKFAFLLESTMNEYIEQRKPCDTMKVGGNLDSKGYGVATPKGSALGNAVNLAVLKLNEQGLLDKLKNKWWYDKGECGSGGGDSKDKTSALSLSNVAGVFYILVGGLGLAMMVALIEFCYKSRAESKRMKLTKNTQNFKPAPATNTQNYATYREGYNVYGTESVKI
From the text: as §4, §5, §6, §7

GluR1 AMPA receptor = target: T4, GluR1 AMPA receptor (Rattus norvegicus, UniProt P19490); test: Kainate-induced currents, Xenopus oocytes injected with GluR1 cRNA; format: cell-based
T4 construct: expressed in transfected cells; host or cells: Xenopus oocytes injected with GluR1 cRNA
T4 sequence (P19490 19-907): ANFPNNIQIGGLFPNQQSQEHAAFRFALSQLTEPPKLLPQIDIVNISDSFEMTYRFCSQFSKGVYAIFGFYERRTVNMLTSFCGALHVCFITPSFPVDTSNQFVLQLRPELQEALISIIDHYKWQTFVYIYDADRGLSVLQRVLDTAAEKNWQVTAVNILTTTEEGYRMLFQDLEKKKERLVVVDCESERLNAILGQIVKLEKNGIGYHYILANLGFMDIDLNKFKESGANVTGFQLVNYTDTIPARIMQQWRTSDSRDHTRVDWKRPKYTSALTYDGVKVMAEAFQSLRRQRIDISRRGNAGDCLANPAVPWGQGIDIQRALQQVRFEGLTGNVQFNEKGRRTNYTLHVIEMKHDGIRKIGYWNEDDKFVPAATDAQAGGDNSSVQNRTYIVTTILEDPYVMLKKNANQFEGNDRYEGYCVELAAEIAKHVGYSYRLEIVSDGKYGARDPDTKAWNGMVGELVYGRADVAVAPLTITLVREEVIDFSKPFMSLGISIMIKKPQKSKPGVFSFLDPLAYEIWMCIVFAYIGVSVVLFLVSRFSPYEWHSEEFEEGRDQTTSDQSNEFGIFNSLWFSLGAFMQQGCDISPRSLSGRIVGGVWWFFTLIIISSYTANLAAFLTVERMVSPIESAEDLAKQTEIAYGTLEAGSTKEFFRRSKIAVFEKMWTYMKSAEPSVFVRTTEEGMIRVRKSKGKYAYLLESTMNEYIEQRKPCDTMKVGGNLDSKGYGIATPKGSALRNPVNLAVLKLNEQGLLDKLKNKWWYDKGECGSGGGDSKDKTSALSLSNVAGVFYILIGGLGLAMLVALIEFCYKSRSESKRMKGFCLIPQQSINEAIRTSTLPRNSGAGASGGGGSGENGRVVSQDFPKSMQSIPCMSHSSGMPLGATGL
From the text: as §4, §5, §6, §7

GluR6 kainate receptor = target: T5, GluR6 kainate receptor (Rattus norvegicus, UniProt P42260); test: Kainate-induced currents, Xenopus oocytes injected with GluR6 cRNA; format: cell-based
T5 construct: expressed in transfected cells; host or cells: Xenopus oocytes injected with GluR6 cRNA (concanavalin A treated)
T5 sequence (P42260 32-908): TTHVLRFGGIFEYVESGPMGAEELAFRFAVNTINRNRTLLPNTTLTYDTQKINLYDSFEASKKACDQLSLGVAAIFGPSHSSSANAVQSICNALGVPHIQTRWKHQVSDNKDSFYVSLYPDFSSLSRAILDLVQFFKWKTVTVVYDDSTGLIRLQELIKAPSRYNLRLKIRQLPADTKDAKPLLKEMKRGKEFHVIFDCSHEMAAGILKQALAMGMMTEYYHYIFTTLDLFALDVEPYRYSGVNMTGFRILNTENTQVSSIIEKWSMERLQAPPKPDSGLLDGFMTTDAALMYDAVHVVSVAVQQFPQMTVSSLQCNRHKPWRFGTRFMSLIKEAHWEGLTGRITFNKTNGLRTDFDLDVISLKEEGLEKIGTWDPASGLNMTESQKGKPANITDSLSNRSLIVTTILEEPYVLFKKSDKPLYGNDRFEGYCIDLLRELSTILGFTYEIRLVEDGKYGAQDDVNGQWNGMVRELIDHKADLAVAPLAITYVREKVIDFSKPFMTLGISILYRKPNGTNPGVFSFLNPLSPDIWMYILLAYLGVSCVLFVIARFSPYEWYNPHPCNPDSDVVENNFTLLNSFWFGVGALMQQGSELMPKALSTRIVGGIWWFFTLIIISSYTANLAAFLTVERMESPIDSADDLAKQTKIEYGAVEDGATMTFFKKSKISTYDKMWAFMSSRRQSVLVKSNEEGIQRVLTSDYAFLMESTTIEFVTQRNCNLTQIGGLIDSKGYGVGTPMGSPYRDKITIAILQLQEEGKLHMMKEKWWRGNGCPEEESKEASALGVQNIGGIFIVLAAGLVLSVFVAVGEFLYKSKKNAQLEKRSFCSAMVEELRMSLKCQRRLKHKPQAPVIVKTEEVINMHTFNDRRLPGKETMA
From the text: as §4, §5, §6, §7

| Compound | inhibition of NMDA-induced neuronal death [1] | inhibition of INMDA [2] | reduction of NMDA-induced rise in [Ca2+]i ([3]; 5 μM NMDA) | exacerbation of NMDA-induced neuronal death [1] | potentiation of INMDA [2] | other results |
| --- | --- | --- | --- | --- | --- | --- |
| CC(=O)[C@H]1CC[C@H]2[C@@H]3CC[C@@H]4C[C@H](OC(=O)C(=O)O)CC[C@]4(C)[C@H]3CC[C@]12C [3α5βHO, pregnanolone hemioxylate] | 35±6% | about equally effective in inhibiting INMDA | approximately 40% |  |  |  |
| CC(=O)[C@H]1CC[C@H]2[C@@H]3CC[C@@H]4C[C@@H](OS(=O)(=O)O)CC[C@]4(C)[C@H]3CC[C@]12C [3β5βS, epipregnanolone sulfate] | 86±3% |  |  |  |  | EC50 [4]: 79 µM; EC50 (NR1100 NMDA receptor): 144 µM; modulation of NMDA-induced current [5]: strong inhibitors |
| CC(=O)[C@H]1CC[C@H]2[C@@H]3CC[C@@H]4C[C@H](OC(=O)CCCC(=O)O)CC[C@]4(C)[C@H]3CC[C@]12C [3α5βHG, pregnanolone hemiglutarate] | 38±6% | about equally effective in inhibiting INMDA | approximately 40% |  |  |  |
| CC(=O)[C@H]1CC[C@H]2[C@@H]3CC[C@H]4C[C@@H](OS(=O)(=O)O)CC[C@]4(C)[C@H]3CC[C@]12C [3α5αS, 3α-hydroxy-5α-pregnan-20-one sulfate] | 47±12% |  |  |  |  | effect on NMDA induced current [4]: 8±8%; modulation of NMDA-induced current ([5]; sulfate): weaker inhibitor |
| CC(=O)[C@H]1CC[C@H]2[C@@H]3CC[C@@H]4C[C@H](O)CC[C@]4(C)[C@H]3CC[C@]12C [3α5β, pregnanolone] | do not exhibit significant neuroprotective activity | inactive | no significant effect |  |  | precipitation at higher concentrations [6]: higher concentrations tended to precipitate |
| CC(=O)[C@H]1CC[C@H]2[C@@H]3CC[C@H]4C[C@@H](OS(=O)(=O)O)CC[C@]4(C)[C@H]3CC[C@]12C [3β5αS, 3β-hydroxy-5α-pregnan-20-one sulfate] |  |  |  | 40±7% |  | effect on NMDA induced current [4]: 33±13%; modulation of NMDA-induced current ([5]; sulfate): weakly potentiates |
| pregnanolone formate [3α5βF] | do not exhibit significant neuroprotective activity | significantly inhibits INMDA | no significant effect |  |  |  |
| CC(=O)[C@H]1CC[C@H]2[C@@H]3CC=C4C[C@@H](OC=O)CC[C@]4(C)[C@H]3CC[C@]12C [PF, pregnenolone formate] |  |  |  | ineffective | little activity | potentiation of NMDA-induced Ca2+ accumulation ([3]; 5 μM NMDA, steroid 100 μM (pregnenolone 20 μM)): without effect |
| CC(=O)C1CCC2C3CC=C4C[C@@H](OC(=O)CCC(=O)O)CC[C@]4(C)C3CC[C@]12C (some centres unmarked) [PHS, pregnenolone hemisuccinate] |  |  |  |  | more than doubling the response | Percentage change in kainate response (GluR3 AMPA receptor): −72 ± 3(3) %; Percentage change in NMDA response ([4]; NR1100 + NR2A, steroid 100 μM, 100 μM NMDA, −100 mV): +118 ± 16(16) %; Percentage change in kainate response (GluR1 AMPA receptor): −71 ± 1(4) %; Percentage change in kainate response (GluR6 kainate receptor): −15 ± 2(3) %; inhibition of the response to kainate (GluR6 kainate receptor): 15% |
| CC(=O)[C@H]1CC[C@H]2[C@@H]3CC=C4C[C@@H](OC(=O)CCCC(=O)O)CC[C@]4(C)[C@H]3CC[C@]12C [PHG, pregnenolone hemiglutarate] |  |  |  | 54±9% | more than doubling the response | potentiation of NMDA-induced Ca2+ accumulation [3]: 146±29% |
| CC(=O)[C@H]1CC[C@H]2[C@@H]3CC=C4C[C@@H](OC(=O)C(=O)O)CC[C@]4(C)[C@H]3CC[C@]12C [PHO, pregnenolone hemioxylate] |  |  |  | 48±12% | little activity; also recorded: does not enhance the NMDA-induced current | potentiation of NMDA-induced Ca2+ accumulation [3]: 62±17% |
